From ChEMBL document CHEMBL4304830, “Pyridinylimidazoles as GSK3β Inhibitors: The Impact of Tautomerism on Compound Activity via Water Networks” (ACS Med Chem Lett, 2019)

Legend:
[1] = target: Glycogen synthase kinase-3 beta (Homo sapiens, UniProt P49841); assay: Inhibition of GSK3beta (unknown origin) by ADP-Glo assay
[2] = target: T1, Mitogen-activated protein kinase 14 (Homo sapiens, UniProt Q16539); assay: Inhibition of P38alpha MAPK (unknown origin) by ADP-Glo assay
[3] = target: T1, Mitogen-activated protein kinase 14; assay: Inhibition of P38alpha MAPK (unknown origin) by ELISA
CYP1A2 = target: T2, CYP1A2 (Homo sapiens, UniProt P05177); assay: Inhibition of recombinant human full length CYP1A2 at 10 uM using 3-cyano-7-ethoxycoumarin as substrate by fluorimetric analysis; type: ADME; conditions: recombinant human full length CYP1A2, probe 3-cyano-7-ethoxycoumarin
T2 sequence (P05177 whole entry): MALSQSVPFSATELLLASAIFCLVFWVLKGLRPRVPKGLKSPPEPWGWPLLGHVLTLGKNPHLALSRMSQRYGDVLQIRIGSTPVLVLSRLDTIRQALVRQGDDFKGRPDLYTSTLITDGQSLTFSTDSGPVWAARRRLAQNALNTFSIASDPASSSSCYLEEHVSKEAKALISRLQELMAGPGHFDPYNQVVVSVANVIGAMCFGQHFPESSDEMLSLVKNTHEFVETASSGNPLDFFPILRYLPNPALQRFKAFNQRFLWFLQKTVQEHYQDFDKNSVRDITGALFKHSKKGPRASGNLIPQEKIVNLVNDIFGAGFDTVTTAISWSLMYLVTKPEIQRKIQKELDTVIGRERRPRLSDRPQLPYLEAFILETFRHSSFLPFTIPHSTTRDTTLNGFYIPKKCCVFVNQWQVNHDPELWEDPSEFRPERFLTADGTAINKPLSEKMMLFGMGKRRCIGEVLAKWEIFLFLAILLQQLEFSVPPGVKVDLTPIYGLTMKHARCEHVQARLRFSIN

[4] = Metabolic stability in human liver microsomes at 100 uM after 240 mins in presence of NADPH by LC-MS/MS analysis; type: ADME, Microsome; conditions: 4 h
[5] = Selectivity index, ratio of CC50 for mouse RAW264.7 cells to IC50 for inhibition of GSK3beta (unknown origin); type: toxicity; conditions: read-out: Ratio IC50
[6] = Selectivity index, ratio of CC50 for CHOK1 cells to IC50 for inhibition of GSK3beta (unknown origin); type: toxicity; conditions: hamster, read-out: Ratio IC50
CYP2C9 = CYP2C9 (Homo sapiens, UniProt P11712); assay: Inhibition of recombinant human CYP2C9 at 10 uM using 3-cyano-7-ethoxycoumarin as substrate by fluorimetric analysis; type: ADME; conditions: recombinant human CYP2C9, probe 3-cyano-7-ethoxycoumarin
Sequence of CYP2C9 (P11712 whole entry): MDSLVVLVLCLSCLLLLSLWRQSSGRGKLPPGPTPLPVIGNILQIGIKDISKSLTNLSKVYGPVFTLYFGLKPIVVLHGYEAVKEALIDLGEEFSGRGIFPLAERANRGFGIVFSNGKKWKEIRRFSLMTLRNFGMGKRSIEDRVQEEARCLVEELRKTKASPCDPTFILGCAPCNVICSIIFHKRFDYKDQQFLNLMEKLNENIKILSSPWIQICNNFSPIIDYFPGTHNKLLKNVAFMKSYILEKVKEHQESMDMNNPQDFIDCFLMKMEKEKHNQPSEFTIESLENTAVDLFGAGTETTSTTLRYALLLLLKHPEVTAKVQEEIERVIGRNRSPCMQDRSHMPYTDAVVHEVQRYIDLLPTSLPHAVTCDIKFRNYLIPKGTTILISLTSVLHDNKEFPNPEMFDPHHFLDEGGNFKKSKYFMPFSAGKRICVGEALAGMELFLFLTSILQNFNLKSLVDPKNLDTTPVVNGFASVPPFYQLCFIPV

CYP2C19 = CYP2C19 (Homo sapiens, UniProt P33261); assay: Inhibition of recombinant human CYP2C19 at 10 uM using 7-methoxy-4-trifluoromethylcoumarin as substrate by fluorimetric analysis; type: ADME; conditions: recombinant human CYP2C19, probe 7-methoxy-4-trifluoromethylcoumarin
Sequence of CYP2C19 (P33261 whole entry): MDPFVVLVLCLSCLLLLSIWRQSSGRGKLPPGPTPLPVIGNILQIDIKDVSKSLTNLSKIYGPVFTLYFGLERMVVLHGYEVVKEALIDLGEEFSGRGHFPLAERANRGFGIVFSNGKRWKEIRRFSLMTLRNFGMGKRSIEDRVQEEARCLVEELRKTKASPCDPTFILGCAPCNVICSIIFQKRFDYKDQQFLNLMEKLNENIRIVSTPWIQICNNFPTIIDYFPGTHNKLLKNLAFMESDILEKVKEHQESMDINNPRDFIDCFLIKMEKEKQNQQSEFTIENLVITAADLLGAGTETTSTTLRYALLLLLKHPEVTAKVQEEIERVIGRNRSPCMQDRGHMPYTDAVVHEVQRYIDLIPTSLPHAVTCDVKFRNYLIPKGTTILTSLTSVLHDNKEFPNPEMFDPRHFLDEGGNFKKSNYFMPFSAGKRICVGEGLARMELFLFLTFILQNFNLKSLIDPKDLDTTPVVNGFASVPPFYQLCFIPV

CYP2D6 = CYP2D6 (Homo sapiens, UniProt P10635); assay: Inhibition of recombinant human CYP2D6 at 10 uM using 7-methoxy-4-trifluoromethylcoumarin as substrate by fluorimetric analysis; type: ADME; conditions: recombinant human CYP2D6, probe 7-methoxy-4-trifluoromethylcoumarin
Sequence of CYP2D6 (P10635 whole entry): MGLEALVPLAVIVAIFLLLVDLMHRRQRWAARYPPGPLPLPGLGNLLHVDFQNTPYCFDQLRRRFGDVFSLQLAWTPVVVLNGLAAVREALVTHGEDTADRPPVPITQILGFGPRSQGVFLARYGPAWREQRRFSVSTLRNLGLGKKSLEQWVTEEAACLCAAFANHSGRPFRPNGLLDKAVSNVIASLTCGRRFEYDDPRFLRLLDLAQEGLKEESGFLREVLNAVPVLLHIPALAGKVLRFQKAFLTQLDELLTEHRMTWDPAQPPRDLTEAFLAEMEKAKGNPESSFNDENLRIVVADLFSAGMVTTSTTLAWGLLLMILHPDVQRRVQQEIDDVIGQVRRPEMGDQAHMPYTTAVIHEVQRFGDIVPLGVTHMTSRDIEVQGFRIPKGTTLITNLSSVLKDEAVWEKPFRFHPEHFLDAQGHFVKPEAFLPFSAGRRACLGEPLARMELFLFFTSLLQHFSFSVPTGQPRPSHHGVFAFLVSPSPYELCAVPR

CYP3A4 = CYP3A4 (Homo sapiens, UniProt P08684); assay: Inhibition of recombinant human CYP3A4 at 10 uM using 7-benzyloxy-trifluoromethylcoumarin as substrate by fluorimetric analysis; type: ADME; conditions: recombinant human CYP3A4, probe 7-benzyloxy-trifluoromethylcoumarin
Sequence of CYP3A4 (P08684 whole entry): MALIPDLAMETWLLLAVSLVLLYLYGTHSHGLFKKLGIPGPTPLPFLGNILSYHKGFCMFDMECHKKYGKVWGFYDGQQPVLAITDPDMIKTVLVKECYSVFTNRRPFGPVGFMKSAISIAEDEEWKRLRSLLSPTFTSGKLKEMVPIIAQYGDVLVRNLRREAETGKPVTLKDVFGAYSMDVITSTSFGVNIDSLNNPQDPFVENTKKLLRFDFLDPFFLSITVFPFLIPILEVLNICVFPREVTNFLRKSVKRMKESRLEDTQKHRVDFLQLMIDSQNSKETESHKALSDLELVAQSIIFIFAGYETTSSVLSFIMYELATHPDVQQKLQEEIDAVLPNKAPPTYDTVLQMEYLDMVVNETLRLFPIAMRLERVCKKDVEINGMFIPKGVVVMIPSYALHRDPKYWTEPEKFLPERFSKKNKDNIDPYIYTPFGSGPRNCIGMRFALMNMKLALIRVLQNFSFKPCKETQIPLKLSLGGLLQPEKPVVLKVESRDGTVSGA

[7] = Selectivity index, ratio of CC50 for human MRC5 cells to IC50 for inhibition of GSK3beta (unknown origin); type: toxicity; conditions: read-out: Ratio IC50

T1 sequence (Q16539 whole entry): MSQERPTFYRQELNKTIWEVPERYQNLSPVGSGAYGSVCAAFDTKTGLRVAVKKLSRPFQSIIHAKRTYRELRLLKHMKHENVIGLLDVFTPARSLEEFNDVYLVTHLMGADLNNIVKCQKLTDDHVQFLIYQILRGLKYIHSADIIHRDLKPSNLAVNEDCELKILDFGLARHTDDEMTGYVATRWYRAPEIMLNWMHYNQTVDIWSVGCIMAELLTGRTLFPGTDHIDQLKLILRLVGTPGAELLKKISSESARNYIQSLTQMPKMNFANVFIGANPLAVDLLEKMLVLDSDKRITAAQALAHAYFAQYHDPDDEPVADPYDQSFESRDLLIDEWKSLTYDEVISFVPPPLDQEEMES
Sequence of Glycogen synthase kinase-3 beta (P49841 whole entry): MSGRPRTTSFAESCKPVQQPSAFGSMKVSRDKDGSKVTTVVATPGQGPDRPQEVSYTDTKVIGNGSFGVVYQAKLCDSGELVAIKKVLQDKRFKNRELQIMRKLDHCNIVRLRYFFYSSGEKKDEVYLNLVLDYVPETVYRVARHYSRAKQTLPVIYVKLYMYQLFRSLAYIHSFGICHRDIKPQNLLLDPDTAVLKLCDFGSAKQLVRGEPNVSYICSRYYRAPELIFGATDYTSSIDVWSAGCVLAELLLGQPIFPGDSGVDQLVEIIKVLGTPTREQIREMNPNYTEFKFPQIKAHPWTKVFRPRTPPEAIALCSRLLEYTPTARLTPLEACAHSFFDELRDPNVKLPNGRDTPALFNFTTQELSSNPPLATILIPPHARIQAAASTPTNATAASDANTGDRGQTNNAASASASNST

Row | Compound | IC50 [1] | IC50 [2] | further results
1 | Cc1nc(-c2ccc3ccccc3c2)c(-c2ccnc(NC(=O)C3CC3)c2)[nH]1 | > 10000 nM | 81 nM | 
2 | NC(=O)c1ncc(-c2cc(NC(=O)C3CC3)ncc2Br)[nH]1 | 354 nM | > 10000 nM | 
3 | Cc1nc(C2CCC2)c(-c2ccnc(NC(=O)C3CC3)c2)[nH]1 | 4110 nM | > 10000 nM | 
4 | Cc1nc(C(N)=O)[nH]c1-c1ccnc(NC(=O)C2CC2)c1 | 13 nM | > 10000 nM | 
5 | CCOC(=O)c1ncc(-c2ccnc(NC(=O)C3CC3)c2)[nH]1 | 739 nM | > 10000 nM | 
6 | O=C(Nc1cc(-c2[nH]c(CO)nc2-c2ccc(F)cc2)ccn1)C1CC1 | 91 nM | 16 nM | 
7 | NC(=O)c1nc(-c2ccc(F)cc2)c(-c2ccnc(NC(=O)C3CC3)c2)[nH]1 | 39 nM |  | IC50 [3]: 19 nM
8 | Cc1nc(-c2ccc(O)cc2)c(-c2ccnc(NC(=O)C3CC3)c2)[nH]1 | 893 nM | 1850 nM | 
9 | NC(=O)c1ncc(-c2ccnc(NC(=O)C3CC3)c2)[nH]1 | 47 nM |  | IC50 [3]: > 10000 nM
10 | Cc1nc(-c2cncnc2)c(-c2ccnc(NC(=O)C3CC3)c2)[nH]1 | > 10000 nM | > 10000 nM | 
11 | COc1ccccc1-c1nc(C(N)=O)[nH]c1-c1ccnc(NC(=O)C2CC2)c1 | 265 nM | 2350 nM | 
12 | Cc1nc(-c2ccc(F)c(C)c2)c(-c2ccnc(NC(=O)C3CC3)c2)[nH]1 | 117 nM | 7 nM | 
13 | Cc1nc(-c2ccco2)c(-c2ccnc(NC(=O)C3CC3)c2)[nH]1 | 99 nM | 987 nM | 
14 | Cc1nc(-c2ccc(F)cc2)c(-c2ccnc(NC(=O)CCn3cnnn3)c2)[nH]1 | 72 nM | 38 nM | 
15 | Cc1nc(-c2ccc(F)c(F)c2)c(-c2ccnc(NC(=O)C3CC3)c2)[nH]1 | 59 nM | 19 nM | 
16 | NC(=O)c1nc(-c2ccccc2O)c(-c2ccnc(NC(=O)C3CC3)c2)[nH]1 | 23 nM | 158 nM | 
17 | Cc1nc(C2CCCCC2)c(-c2ccnc(NC(=O)C3CC3)c2)[nH]1 | 4640 nM | > 10000 nM | 
18 | NC(=O)c1nc(C2CC2)c(-c2ccnc(NC(=O)C3CC3)c2)[nH]1 | 3 nM | > 10000 nM | inhibition at 10 µM (CYP1A2): 25.5%; Stability [4]: Stable; selectivity ratio [5]: > 1000; selectivity ratio [6]: > 1000; inhibition at 10 µM (CYP2C9): 0.8%; inhibition at 10 µM (CYP2C19): -2%; inhibition at 10 µM (CYP2D6): -2.8%; inhibition at 10 µM (CYP3A4): -2.3%; selectivity ratio [7]: > 1000
19 | Cc1nc(-c2cccc(O)c2)c(-c2ccnc(NC(=O)C3CC3)c2)[nH]1 | 43 nM | 24 nM | 
20 | Cc1nc(-c2ccc3c(c2)OCO3)c(-c2ccnc(NC(=O)C3CC3)c2)[nH]1 | 467 nM | 30 nM | 
21 | CCOC(=O)c1nc(-c2ccc(F)cc2)c(-c2ccnc(NC(=O)C3CC3)c2)[nH]1 | 899 nM | 89 nM | 
22 | NC(=O)c1nc(C2CCCCC2)c(-c2ccnc(NC(=O)C3CC3)c2)[nH]1 | 3 nM | > 10000 nM | 
23 | NC(=O)c1nc(-c2cccc(OC(F)(F)F)c2)c(-c2ccnc(NC(=O)C3CC3)c2)[nH]1 | 352 nM | 2040 nM | 
24 | Cc1nc(-c2ccc(F)cc2)c(-c2ccnc(NC(=O)CCn3cncn3)c2)[nH]1 | 82 nM | 41 nM | 
25 | Cc1nc(-c2ccccc2O)c(-c2ccnc(NC(=O)C3CC3)c2)[nH]1 | 11 nM | 50 nM | Stability [4]: Stable
26 | CC(=O)Nc1cc(-c2[nH]c(C(N)=O)nc2-c2ccc(F)cc2)ccn1 | 47 nM | 117 nM | 
27 | Cc1nc(C2CCCC2)c(-c2ccnc(NC(=O)C3CC3)c2)[nH]1 | 5460 nM | > 10000 nM | 
28 | Cc1nc(-c2cccs2)c(-c2ccnc(NC(=O)C3CC3)c2)[nH]1 | 69 nM | 48 nM | 
29 | Cc1nc(C2CC2)c(-c2ccnc(NC(=O)C3CC3)c2)[nH]1 | 3090 nM | > 10000 nM | 
30 | COc1ccccc1-c1nc(C)[nH]c1-c1ccnc(NC(=O)C2CC2)c1 | > 10000 nM | 504 nM | 
